Assay results from PubChem BioAssay (NCI).
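Method: 48-hour compound exposure of cells in 96-well plates, five concentrations, linear interpolation of endpoints. The concentration for 50% growth inhibition is given as GI50. TGI marks complete inhibition of growth.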

Legend:
Experiment in all cases: DTP human tumour cell line panel, 48 h
HCT-15 colon = system: HCT-15 colon
HOP-62 NSCLC = system: HOP-62 NSCLC
KM12 colon = system: KM12 colon
LOX IMVI melanoma = system: LOX IMVI melanoma
NCI-H23 lung = system: NCI-H23 lung
K-562 leukemia = system: K-562 leukemia
SK-MEL-2 melanoma = system: SK-MEL-2 melanoma
NCI-H522 lung = system: NCI-H522 lung
SNB-75 CNS = system: SNB-75 CNS
BT-549 breast = system: BT-549 breast

Compound | TGI (HCT-15 colon) [µM] | TGI (HOP-62 NSCLC) [µM] | TGI (KM12 colon) [µM] | TGI (LOX IMVI melanoma) [µM] | TGI (NCI-H23 lung) [µM] | TGI (K-562 leukemia) [µM] | TGI (SK-MEL-2 melanoma) [µM] | TGI (NCI-H522 lung) [µM] | TGI (SNB-75 CNS) [µM] | GI50 (HCT-15 colon) [µM] | GI50 (HOP-62 NSCLC) [nM] | GI50 (BT-549 breast) [nM] | TGI (BT-549 breast) [µM] | GI50 (KM12 colon) [µM] | GI50 (LOX IMVI melanoma) [nM] | GI50 (NCI-H23 lung) [nM] | GI50 (K-562 leukemia) [nM] | GI50 (SNB-75 CNS) [µM] | GI50 (SK-MEL-2 melanoma) [nM] | GI50 (NCI-H522 lung) [nM]
CC(=O)n1c(=O)c2cc3c(=O)n(-c4cccc(C#N)c4)c(=O)c3cc2c1=O | > 100 | > 100 | > 100 | > 100 | > 100 | > 100 | > 100 | > 100 | 54.6 | – | – | – | – | – | – | – | – | – | – | –
c1ccc2[nH]c(CNc3ccc(C4C[Se]N=N4)cc3)nc2c1 (stereo not given) | > 100 | > 100 | > 100 | > 100 | > 100 | > 100 | > 100 | > 100 | > 100 | – | – | – | – | – | – | – | – | – | – | –
COc1ccccc1NC(=O)/C(=C/c1ccccc1)C(C)=O | > 100 | > 100 | > 100 | > 100 | 65.7 | > 100 | > 100 | 58.2 | – | – | – | – | – | – | – | – | – | – | – | –
Cc1cccc(N(CC(=O)O)S(=O)(=O)c2ccccc2)c1 | > 100 | – | > 100 | > 100 | > 100 | > 100 | > 100 | > 100 | > 100 | – | – | – | – | – | – | – | – | – | – | –
N#C/C(=C1\SC(N=Nc2ccc(Cl)cc2)C(=O)N1c1ccccc1)c1nc2ccccc2[nH]1 (stereo not given) | > 100 | 35.4 | – | 57.4 | 65.8 | 41 | 62 | 79.9 | 65.5 | – | – | – | – | – | – | – | – | – | – | –
CCOC(=O)N1CCN(CCCCCOc2ccccc2C2CCCCC2)CC1 | 12.9 | 8.05 | 23.1 | 12.5 | 5.93 | 10.9 | – | – | 23 | 3.09 | 2520 | 3000 | 11.3 | 7.67 | 2850 | 3120 | 1970 | 10.7 | – | –
O=C1[C@H]2ON(c3ccccc3)C(c3ccco3)[C@H]2C(=O)N1c1ccc(Cc2ccc(N3C(=O)[C@@H]4ON(c5ccccc5)C(c5ccco5)[C@@H]4C3=O)cc2)cc1 (stereo not given in full) | > 100 | > 100 | > 100 | > 100 | > 100 | > 100 | > 100 | – | > 100 | – | – | – | – | – | – | – | – | – | – | –
CN(C)C(=S)Nc1nnc(Nc2ccccc2)s1 | > 100 | > 100 | – | > 100 | > 100 | > 100 | > 100 | > 100 | > 100 | – | – | – | – | – | – | – | – | – | – | –
N#Cc1c(-c2ccco2)cc(-c2ccccc2)[nH]c1=O | > 100 | > 100 | > 100 | > 100 | > 100 | > 100 | – | > 100 | > 100 | – | – | – | – | – | – | – | – | – | – | –
Cc1nc(-c2cccnc2)sc1C(=O)/C=C/c1cccc([N+](=O)[O-])c1 | > 100 | > 100 | > 100 | > 100 | > 100 | > 100 | > 100 | > 100 | > 100 | – | – | – | – | – | – | – | – | – | – | –
Cc1ccc(NC(=O)/C(Cc2nc3ccc([N+](=O)[O-])cc3[nH]c2=O)=N\NC(=O)C[n+]2ccccc2)c(C)c1 | > 100 | > 100 | > 100 | > 100 | > 100 | – | > 100 | 61.6 | > 100 | – | – | – | > 100 | – | – | – | – | – | – | –
CC(C)(C)c1ccc(OC2CCO2)cc1 (stereo not given) | 36.9 | > 100 | 70.2 | – | > 100 | 39.1 | – | 52.5 | > 100 | – | – | – | – | – | – | – | – | – | – | –
CC1=NN(C(=O)c2ccncc2)C(=O)C1N=Nc1ccc(F)cc1 (stereo not given) | > 100 | – | – | > 100 | > 100 | > 100 | > 100 | > 100 | 66.8 | – | – | – | – | – | – | – | – | – | – | –
O=C1CNS(=O)(=O)N1 | – | > 100 | > 100 | – | > 100 | > 100 | > 100 | > 100 | > 100 | – | – | – | – | – | – | – | – | – | – | –
C=C1C2Oc3ccccc3C1N(c1ccccc1)O2 (stereo not given) | > 100 | > 100 | 42.2 | 36.2 | – | > 100 | > 100 | 80.8 | > 100 | – | – | – | – | – | – | – | – | – | – | –
CC(C)(C)NCC(COc1ccc([N+](=O)[O-])cc1)OP(c1ccccc1)c1ccccc1 (stereo not given) | > 100 | > 100 | > 100 | 26.7 | > 100 | > 100 | > 100 | 69.5 | > 100 | – | – | – | – | – | – | – | – | – | – | –
COc1ccc2[nH]c(-c3ccc(O)cc3)cc(=O)c2c1 | 7.03 | > 58.8 | 7.09 | > 90 | 6.38 | > 48.3 | – | 1.35 | 1.7 | – | – | – | > 100 | – | – | – | – | – | – | –
Nc1ccccc1C(=O)C(Br)C(Br)c1ccc2c(c1)OCO2 (stereo not given) | 48.1 | 51 | 33.8 | 27.8 | 47.4 | > 100 | 35.2 | 48.1 | 60.9 | – | – | – | – | – | – | – | – | – | – | –
COc1ccc(-c2c(C3=NCCCN3)nnn2-c2ccc([N+](=O)[O-])cc2)cc1 | > 100 | > 100 | > 100 | > 100 | > 100 | > 100 | > 100 | > 100 | > 100 | – | – | – | – | – | – | – | – | – | – | –
Cc1cccc(C)c1N1C(=O)C(=O)C(c2nc3ccccc3s2)C(=Nc2cccc3c(=O)[nH][nH]c(=O)c23)C1=O (stereo not given) | > 100 | > 100 | > 100 | > 100 | > 100 | > 100 | > 100 | – | > 100 | – | – | – | – | – | – | – | – | – | – | –
C=CCNC(=O)N(CCC)CCCC(NC(C)=O)C(=O)NCc1ccccc1 (stereo not given) | > 100 | > 100 | > 100 | > 100 | > 100 | > 100 | > 100 | > 100 | > 100 | – | – | – | – | – | – | – | – | – | – | –
O=c1[nH]c2cc([N+](=O)[O-])ccc2nc1/C(=N\Nc1ccccc1)C(O)c1ccc2c(c1)OCO2 (stereo not given) | 58.2 | > 100 | > 100 | > 100 | > 100 | > 100 | > 100 | > 100 | > 100 | – | – | – | – | – | – | – | – | – | – | –
CCCCCCCCCCCCCC[n+]1cccc(C(N)=O)c1 | 58.3 | 3.41 | – | – | 13.6 | 6.53 | 4.69 | 6.24 | 2.57 | 13.5 | 1350 | – | – | – | – | 2280 | 1880 | 1.06 | 2130 | 1310
